Measured values: PubChem BioAssay AID1919006 (Molecular Pharmacology Branch, DTP, NCI, 2023)

Tested on: 885512-296-R-J2-PDC complex spheroid growth, % test/control
Assay: Anticancer human tumor 885512-296-R-J2-PDC patient-derived breast carcinoma cell line growth inhibition [AhR]
Conditions: for IC50: curve of first compound; for viability, T/C: stronger effect = lower value; active means viability on the fitted dose curve at most 10% of control; inactive means the rest
Method in brief: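 Agents were dosed in half-log steps down from roughly clinical Cmax, or from 10 microM where Cmax was unknown, alone and with AhR antagonists. Read-out: percent test/control growth of tumor spheroids containing HUVEC and MSC stromal cells.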

[1] = second compound 0.1 µM, first compound 0.0316 µM
[2] = second compound 0.1 µM, first compound 0.1 µM
[3] = second compound 0.1 µM, first compound 0.316 µM
[4] = second compound 0.1 µM, first compound 1 µM
[5] = second compound 0.1 µM, first compound 3.16 µM
[6] = second compound 0.1 µM, first compound 10 µM
[7] = second compound 0.316 µM, first compound 0.0316 µM
[8] = second compound 0.316 µM, first compound 0.1 µM
[9] = second compound 0.316 µM, first compound 0.316 µM
[10] = second compound 0.316 µM, first compound 1 µM
[11] = second compound 0.316 µM, first compound 3.16 µM
[12] = second compound 0.316 µM, first compound 10 µM
[13] = second compound 1 µM, first compound 0.0316 µM
[14] = second compound 1 µM, first compound 0.1 µM
[15] = second compound 1 µM, first compound 0.316 µM
[16] = second compound 1 µM, first compound 1 µM
[17] = second compound 1 µM, first compound 3.16 µM
[18] = second compound 1 µM, first compound 10 µM
[19] = second compound 3.16 µM, first compound 0.0316 µM
[20] = second compound 3.16 µM, first compound 0.1 µM
[21] = second compound 3.16 µM, first compound 0.316 µM
[22] = second compound 3.16 µM, first compound 1 µM
[23] = second compound 3.16 µM, first compound 3.16 µM
[24] = second compound 3.16 µM, first compound 10 µM
[25] = second compound 10 µM, first compound 0.0316 µM
[26] = second compound 10 µM, first compound 0.1 µM
[27] = second compound 10 µM, first compound 0.316 µM
[28] = second compound 10 µM, first compound 1 µM
[29] = second compound 10 µM, first compound 3.16 µM
[30] = second compound 10 µM, first compound 10 µM
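Further: spheroids exposed to compounds for seven days.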

CC(C)CC(NC(=O)C(Cc1ccccc1)NC(=O)c1cnccn1)B(O)O (stereo not given) + CC(CO)NC(=O)c1cc(-c2ccc(Cl)cc2)nn(-c2cnn(C)c2)c1=O
5.45 nM: IC50 (second compound 1 µM)
5.75 nM: IC50 (second compound 10 µM)
5.22 nM: IC50 (second compound 0.1 µM)
active: viability, T/C (second compound 0.1 µM, first compound 0.03 µM) 0.69% | viability, T/C (second compound 0.1 µM, first compound 0.0949 µM) 0.12% | viability, T/C (second compound 0.1 µM, first compound 0.3 µM) 0.12% | viability, T/C (second compound 0.316 µM, first compound 0.03 µM) 0.78% | viability, T/C (second compound 0.316 µM, first compound 0.0949 µM) 0.16% | viability, T/C (second compound 0.316 µM, first compound 0.3 µM) 0.08% | viability, T/C (second compound 1 µM, first compound 0.00949 µM) 9.2% | viability, T/C (second compound 1 µM, first compound 0.03 µM) 0.72% | viability, T/C (second compound 1 µM, first compound 0.0949 µM) 0.26% | viability, T/C (second compound 1 µM, first compound 0.3 µM) 0.12% | viability, T/C (second compound 3.16 µM, first compound 0.03 µM) 0.76% | viability, T/C (second compound 3.16 µM, first compound 0.0949 µM) 0.16% | viability, T/C (second compound 3.16 µM, first compound 0.3 µM) 0.1% | viability, T/C (second compound 10 µM, first compound 0.00949 µM) 9.64% | viability, T/C (second compound 10 µM, first compound 0.03 µM) 0.68% | viability, T/C (second compound 10 µM, first compound 0.0949 µM) 0.18% | viability, T/C (second compound 10 µM, first compound 0.3 µM) 0.14%
inactive: viability, T/C (second compound 0.1 µM, first compound 0.000949 µM) 97% | viability, T/C (second compound 0.1 µM, first compound 0.003 µM) 86.5% | viability, T/C (second compound 0.1 µM, first compound 0.00949 µM) 10.7% | viability, T/C (second compound 0.316 µM, first compound 0.000949 µM) 96.1% | viability, T/C (second compound 0.316 µM, first compound 0.003 µM) 99.3% | viability, T/C (second compound 0.316 µM, first compound 0.00949 µM) 11.2% | viability, T/C (second compound 1 µM, first compound 0.000949 µM) 98.4% | viability, T/C (second compound 1 µM, first compound 0.003 µM) 94% | viability, T/C (second compound 3.16 µM, first compound 0.000949 µM) 89.4% | viability, T/C (second compound 3.16 µM, first compound 0.003 µM) 91.6% | viability, T/C (second compound 3.16 µM, first compound 0.00949 µM) 11.7% | viability, T/C (second compound 10 µM, first compound 0.000949 µM) 91.6% | viability, T/C (second compound 10 µM, first compound 0.003 µM) 113%
5.42 nM: IC50 (second compound 3.16 µM)
5.67 nM: IC50 (second compound 0.316 µM)

COc1cc(Nc2ncc3c(n2)-c2ccc(Cl)cc2C(c2c(F)cccc2OC)=NC3)ccc1C(=O)O + CC(CO)NC(=O)c1cc(-c2ccc(Cl)cc2)nn(-c2cnn(C)c2)c1=O
2440 nM: IC50 (second compound 0.1 µM)
inactive: viability, T/C [1] 53% | viability, T/C [2] 48.3% | viability, T/C [3] 51.4% | viability, T/C [4] 57.6% | viability, T/C [5] 46.4% | viability, T/C [6] 48.3% | viability, T/C [7] 54.9% | viability, T/C [8] 45.5% | viability, T/C [9] 55% | viability, T/C [10] 43.3% | viability, T/C [11] 45% | viability, T/C [12] 37% | viability, T/C [13] 57.6% | viability, T/C [14] 51.2% | viability, T/C [15] 55.7% | viability, T/C [16] 46.7% | viability, T/C [17] 43% | viability, T/C [18] 50.2% | viability, T/C [19] 59.6% | viability, T/C [20] 55.5% | viability, T/C [21] 51.2% | viability, T/C [22] 55.5% | viability, T/C [23] 44.6% | viability, T/C [24] 46.2% | viability, T/C [25] 48.5% | viability, T/C [26] 59.5% | viability, T/C [27] 58.4% | viability, T/C [28] 62.3% | viability, T/C [29] 56.2% | viability, T/C [30] 50.5%
1350 nM: IC50 (second compound 3.16 µM)
456 nM: IC50 (second compound 1 µM)
> 10000 nM: IC50 (second compound 10 µM)
234 nM: IC50 (second compound 0.316 µM)

Nc1ccccc1NC(=O)c1ccc(CNC(=O)OCc2cccnc2)cc1 + CC(CO)NC(=O)c1cc(-c2ccc(Cl)cc2)nn(-c2cnn(C)c2)c1=O
696 nM: IC50 (second compound 0.1 µM)
active: viability, T/C [30] 6.25%
590 nM: IC50 (second compound 3.16 µM)
704 nM: IC50 (second compound 1 µM)
452 nM: IC50 (second compound 10 µM)
620 nM: IC50 (second compound 0.316 µM)
inactive: viability, T/C [1] 91.9% | viability, T/C [2] 76.4% | viability, T/C [3] 61.9% | viability, T/C [4] 42% | viability, T/C [5] 31.8% | viability, T/C [6] 13% | viability, T/C [7] 85.1% | viability, T/C [8] 70.3% | viability, T/C [9] 62.2% | viability, T/C [10] 43.4% | viability, T/C [11] 24.6% | viability, T/C [12] 11.6% | viability, T/C [13] 92.8% | viability, T/C [14] 80.2% | viability, T/C [15] 58.8% | viability, T/C [16] 44% | viability, T/C [17] 32.6% | viability, T/C [18] 11.6% | viability, T/C [19] 85.4% | viability, T/C [20] 78.6% | viability, T/C [21] 59% | viability, T/C [22] 36.8% | viability, T/C [23] 31.4% | viability, T/C [24] 9.96% | viability, T/C [25] 82.6% | viability, T/C [26] 74.2% | viability, T/C [27] 55.5% | viability, T/C [28] 34% | viability, T/C [29] 24.1%

O=C(C=Cc1cccc(S(=O)(=O)Nc2ccccc2)c1)NO + CC(CO)NC(=O)c1cc(-c2ccc(Cl)cc2)nn(-c2cnn(C)c2)c1=O
1490 nM: IC50 (second compound 0.1 µM)
1320 nM: IC50 (second compound 3.16 µM)
inactive: viability, T/C [1] 89.9% | viability, T/C [2] 91.5% | viability, T/C [3] 79.6% | viability, T/C [4] 50.1% | viability, T/C [5] 40.4% | viability, T/C [6] 10.1% | viability, T/C [7] 89.8% | viability, T/C [8] 84.8% | viability, T/C [9] 79.4% | viability, T/C [10] 51% | viability, T/C [11] 39.9% | viability, T/C [13] 96% | viability, T/C [14] 101% | viability, T/C [15] 80.8% | viability, T/C [16] 50.6% | viability, T/C [17] 40.9% | viability, T/C [18] 9.28% | viability, T/C [19] 81.3% | viability, T/C [20] 86.5% | viability, T/C [21] 74.1% | viability, T/C [22] 48% | viability, T/C [23] 38.1% | viability, T/C [25] 86.5% | viability, T/C [26] 79.1% | viability, T/C [27] 68.1% | viability, T/C [28] 43.5% | viability, T/C [29] 31.9%
1520 nM: IC50 (second compound 0.316 µM)
1510 nM: IC50 (second compound 1 µM)
909 nM: IC50 (second compound 10 µM)
active: viability, T/C [12] 9.03% | viability, T/C [24] 8.4% | viability, T/C [30] 6.06%
